# According to patent publication US12187712B2, “Cardiac sarcomere inhibitors” (Cytokinetics, Inc., priority 2018, dated 2025):
# How the values were obtained:
# [1] = molecular target: T1, bovine cardiac myofibrils (Bos taurus, UniProt Q9BE39); test: Skinned myofibril ATPase assay (PK/LDH-coupled), CDMF75; type: biochemical; details: inhibition of steady-state ATPase activity of bovine cardiac myofibrils at 75% Ca2+ activation (pCa75)
# T1 construct: full-length cardiac myosin in the context of the native sarcomere, skinned myofibril assays were performed; from tissue; host or cells: bovine cardiac left ventricular tissue, detergent-skinned (Triton X-100) myofibrils
# Procedure: To evaluate the effect of compounds on the ATPase activity of full-length cardiac myosin in the context of the native sarcomere, skinned myofibril assays were performed. Bovine cardiac myofibrils were obtained by homogenizing bovine cardiac left ventricular tissue in the presence of a detergent such as triton X-100. Such treatment removes membranes and a majority of the soluble cytoplasmic proteins but leaves intact the cardiac sarcomeric acto-myosin apparatus. Myofibril preparations retain the ability to hydrolyze ATP in an Ca^2+ regulated manner. ATPase activities of such myofibril preparations in the presence and absence of compounds were assayed at Ca^2+ concentrations activating to a defined fraction of the maximal rate (i.e., 25%, 75%). Small molecule agents were assessed for their ability to inhibit the steady-state ATPase activity of bovine cardiac myofibrils using pyruvate kinase and lactate dehydrogenase (PK/LDH)-coupled enzyme system. This assay regenerates myosin-produced ADP into ATP by oxidizing NADH, producing an absorbance change at 340 nm. Prior to testing small molecule agents, the bovine cardiac myofibrils were assessed for their calcium responsiveness and the calcium concentration that achieves either a 50% (pCa50) or 75% (pCa75) activation of the myofibril system was chosen as the final condition for assessing the inhibitory activity of the small molecule agents. All enzymatic activity was measured in a buffered solution containing 12 mM PIPES (piperazine-N,N′-bis(2-ethanesulfonic acid), 2 mM magnesium chloride at pH 6.8 (PM 12 buffer). Final assay conditions were 1 mg/mL of bovine cardiac myofibrils, 4 U/mL pyruvate kinase, 6 U/mL lactate dehydrogenase, 50 μM ATP, 0.1 mg/mL BSA (bovine serum albumin), 10 ppm antifoam, 1 mM DTT, 0.5 mM NADH, 1.5 mM PEP, 0.6 mM EGTA, and an amount of CaCl2 sufficient to achieve either 50% or 75% activation of the myofibril ATPase activity. Results for compounds tested are provided in Table A. Compounds tested were prepared in accordance with the synthetic procedures described herein.
# [2] = test system: adult cardiac ventricular rat myocytes; test: Adult ventricular myocyte contractility (fractional shortening); type: cell-based, Sprague-Dawley rats; details: 5 min perfusion, 5 cells tested
# Procedure: Adult male Sprague-Dawley rats were anesthetized and the hearts were quickly excised, rinsed and the ascending aorta was cannulated. Continuous retrograde perfusion was initiated on the hearts at a perfusion pressure of 60 cm H2O. Hearts were first perfused with a nominally Ca^2+-free modified Krebs solution of the following composition: 113 mM NaCl, 4.7 mM KCl, 0.6 mM KH2PO4, 0.6 mM Na2HPO4, 1.2 mM MgSO4, 12 mM NaHCO3, 10 mM KHCO3, 30 mM taurine, 5.5 mM glucose and 10 mM Hepes (all Sigma). This medium is not recirculated and is continually aerated with a 95% O2/5% CO2 mixture. After approximately 3 minutes, the heart was perfused with a modified Krebs buffer supplemented with collagenase (Worthington) and 12.5 μM final calcium concentration. The heart was removed from the cannulae after the heart appeared blanched and soft in appearance. The atria and vessels were removed, and the ventricles were gently dissected into smaller pieces with forceps. The tissue was homogenized by repeated pipette trituration, and the collagenase reaction was stopped by 10% bovine calf serum (BCS), sedimentation and resuspension in perfusion buffer containing 5% BCS and 12.5 uM CaCl2. Myocytes were made calcium tolerant by stepwise addition of a CaCl2 solution to a final concentration of 1.2 mM. Cells were then washed and resuspended in Tyrode's buffer (137 mM NaCl, 3.7 mM KCl, 0.5 mM MgCl, 11 mM glucose, 4 mM Hepes, and 1.2 mM CaCl2, pH 7.4). Cells were kept for 60 min at 37° C. prior to initiating experiments and used within 5 hrs of isolation. […] Additionally, only cells whose basal contractility was between 3 and 8% were used in subsequent experiments with compounds.
# Aliquots of myocytes in Tyrode's buffer were placed in perfusion chambers (series 20 RC-27NE; Warner Instruments) complete with heating platforms. […] Contractility of the myocytes and contraction and relaxation velocities were then recorded using edge detection.
# Five or more individual myocytes were tested per compound from two or more different myocyte preparations. […] These average transients were analyzed using the IonWizard software (IonOptix) to determine changes in diastolic length and fractional shortening. Fractional shortening was calculated as: ((resting length −length at peak contraction) divided by the resting length). The percent change in fractional shortening from baseline was calculated as: ((post-dose fractional shortening/basal fractional shortening)*100). The percent reduction in fractional shortening from baseline was calculated as: (100−percent change in fractional shortening from baseline). Maximum contraction and relaxation velocities (um/sec) was also determined. Results from individual cells were averaged and the SEM was calculated.
# [3] = test system: rat cardiac contractility; test: Echocardiography assessment of acute pharmacodynamic effect in rat cardiac contractility (continuous IV infusion); type: in vivo, Sprague Dawley rats; details: estimated plasma concentration for 20% relative reduction in cardiac fractional shortening, loading + maintenance IV dose 0.5 + 1.5 mg/kg, isoflurane anesthesia
# Procedure: Echocardiography assessment of acute pharmacodynamic effect in rat cardiac contractility.
# Assessment of in vivo cardiac function by echocardiography was performed in male Sprague Dawley rats under isoflurane (1-3%) anesthesia. 2-D M-mode images of the left ventricle were acquired in the parasternal long-axis view before and during administration of compounds by continuous IV infusion. In vivo fractional shortening was determined by M-mode image analysis with the following calculation: ((End diastolic diameter−end systolic diameter)/end diastolic diameter×100). For continuous IV infusion experiments, three pre-dose baseline M-mode images were taken at 1 minute intervals prior to infusion of compound. Compounds were formulated in 50% Propylene Glycol (PG): 16% Cavitron: 10% dimethylacetamide (DMA) and delivered via a jugular vein catheter at the rate of 1 mL/kg/h. An estimated loading and maintenance IV infusion dose was administered to establish a steady state plasma concentration that produced a sustained, 20% relative reduction in cardiac fractional shortening for 60 minutes. During infusion, M-mode images were taken at 5 minute intervals for 60 minutes. Blood samples were taken to determine the plasma concentration of the compounds. Data were reported as an estimated IC20 value, which is the concentration at which fractional shortening is […]. […]
# T1 sequence (Q9BE39 whole entry): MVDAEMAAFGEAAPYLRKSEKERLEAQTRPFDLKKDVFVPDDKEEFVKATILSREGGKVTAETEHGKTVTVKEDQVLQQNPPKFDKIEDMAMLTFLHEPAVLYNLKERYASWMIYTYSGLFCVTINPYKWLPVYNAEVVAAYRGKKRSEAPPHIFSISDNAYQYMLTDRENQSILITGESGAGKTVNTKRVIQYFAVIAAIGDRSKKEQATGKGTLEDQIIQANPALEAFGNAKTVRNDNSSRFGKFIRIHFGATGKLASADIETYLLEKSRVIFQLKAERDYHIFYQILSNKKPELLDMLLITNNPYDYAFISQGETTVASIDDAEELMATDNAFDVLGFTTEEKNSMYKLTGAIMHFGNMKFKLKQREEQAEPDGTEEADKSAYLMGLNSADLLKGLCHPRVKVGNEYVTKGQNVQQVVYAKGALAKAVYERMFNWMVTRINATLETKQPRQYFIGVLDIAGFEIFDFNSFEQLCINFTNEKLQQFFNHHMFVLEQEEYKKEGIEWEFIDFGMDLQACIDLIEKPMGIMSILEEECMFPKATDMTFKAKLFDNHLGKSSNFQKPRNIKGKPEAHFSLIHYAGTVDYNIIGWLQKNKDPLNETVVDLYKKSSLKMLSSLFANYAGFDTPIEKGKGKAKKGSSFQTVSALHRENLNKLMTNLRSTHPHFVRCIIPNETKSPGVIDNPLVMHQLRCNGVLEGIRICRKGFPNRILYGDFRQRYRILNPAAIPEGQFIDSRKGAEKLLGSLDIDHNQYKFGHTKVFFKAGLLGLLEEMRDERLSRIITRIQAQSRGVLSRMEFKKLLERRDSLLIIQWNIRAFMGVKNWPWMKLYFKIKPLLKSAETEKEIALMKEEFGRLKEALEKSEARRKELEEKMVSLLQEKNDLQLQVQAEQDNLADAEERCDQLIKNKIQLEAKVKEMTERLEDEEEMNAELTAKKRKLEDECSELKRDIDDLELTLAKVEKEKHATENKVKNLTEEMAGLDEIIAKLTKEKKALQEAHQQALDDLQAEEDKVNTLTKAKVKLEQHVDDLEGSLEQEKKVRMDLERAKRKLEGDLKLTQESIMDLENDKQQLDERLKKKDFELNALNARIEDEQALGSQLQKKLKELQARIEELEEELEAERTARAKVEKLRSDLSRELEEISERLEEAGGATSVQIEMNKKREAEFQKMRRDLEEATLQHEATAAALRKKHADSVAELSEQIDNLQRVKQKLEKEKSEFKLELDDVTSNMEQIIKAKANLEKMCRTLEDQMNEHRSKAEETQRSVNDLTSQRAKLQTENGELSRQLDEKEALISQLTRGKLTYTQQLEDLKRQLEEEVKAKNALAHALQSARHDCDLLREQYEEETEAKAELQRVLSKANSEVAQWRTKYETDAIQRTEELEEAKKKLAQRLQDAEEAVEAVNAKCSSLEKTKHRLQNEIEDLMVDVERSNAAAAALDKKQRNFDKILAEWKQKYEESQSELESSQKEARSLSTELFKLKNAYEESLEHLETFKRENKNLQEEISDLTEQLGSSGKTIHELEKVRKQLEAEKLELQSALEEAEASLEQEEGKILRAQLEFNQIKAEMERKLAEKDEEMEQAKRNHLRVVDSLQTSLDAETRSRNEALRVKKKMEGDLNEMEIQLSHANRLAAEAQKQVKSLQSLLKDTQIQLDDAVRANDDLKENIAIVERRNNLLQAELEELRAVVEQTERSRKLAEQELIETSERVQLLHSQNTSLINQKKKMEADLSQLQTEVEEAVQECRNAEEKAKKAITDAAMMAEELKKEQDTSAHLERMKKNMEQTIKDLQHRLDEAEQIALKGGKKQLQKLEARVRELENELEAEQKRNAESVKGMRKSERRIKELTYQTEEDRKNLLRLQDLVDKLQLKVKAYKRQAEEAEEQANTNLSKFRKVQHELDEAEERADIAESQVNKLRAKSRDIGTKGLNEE
# T1 sequence (P85100 whole entry partner): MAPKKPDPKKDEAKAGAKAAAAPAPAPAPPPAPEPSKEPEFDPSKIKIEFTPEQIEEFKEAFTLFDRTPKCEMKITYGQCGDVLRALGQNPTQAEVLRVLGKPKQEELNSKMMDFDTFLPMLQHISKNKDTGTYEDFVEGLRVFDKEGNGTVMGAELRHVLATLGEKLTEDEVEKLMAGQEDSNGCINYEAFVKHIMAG
# T1 sequence (Q3SZE5 whole entry partner): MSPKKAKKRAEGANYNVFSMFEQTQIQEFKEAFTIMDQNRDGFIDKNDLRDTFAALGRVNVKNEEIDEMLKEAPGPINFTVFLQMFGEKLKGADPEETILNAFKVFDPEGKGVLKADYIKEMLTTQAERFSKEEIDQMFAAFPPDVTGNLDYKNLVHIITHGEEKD
CDMF75 IC15 [1] [nM],IC50 [1] [nM],SMILES,% FS (% reduction from baseline) ± SEM ([2]; concentration 10 μM) [%],% FS (% reduction from baseline) ± SEM ([2]; concentration 5 μM) [%],IC20 at 1.5 mg/kg [3] [nM],% FS (% reduction from baseline) ± SEM ([2]; concentration 1 μM) [%]
1200,4300,"Cc1nc(-c2ccc(CNc3cc(C(N)=O)ccn3)cc2)no1 [Compound 19, 2-((4-(5-methyl-1,2,4-oxadiazol-3-yl)benzyl)amino) isonicotinamide]",14.4 ± 3.4,–,–,–
600,2600,"Cc1nc(-c2ccc([C@@H](C)Nc3cnccn3)cc2)no1 [Compound 28, (R)-N-(1-(4-(5-methyl-1,2,4-oxadiazol-3-yl)phenyl)ethyl)pyrazin-2-amine]",–,43.6 ± 9.3,800,–
500,2300,"C[C@@H](Nc1cnccn1)c1ccc(-c2noc(C(F)(F)F)n2)cc1 [Compound 34, (R)-N-(1-(4-(5-(trifluoromethyl)-1,2,4-oxadiazol-3-yl)phenyl)ethyl)pyrazin-2-amine]",–,30.7 ± 5.0,–,–
200,1000,"Cc1cc(-c2ccc(CNc3cnccn3)cc2)no1 [Compound 52, N-(4-(5-methylisoxazol-3-yl)benzyl)pyrazin-2-amine]",–,–,–,17.4 ± 6.8
400,2200,"COc1cnc(NCc2ccc(-c3cc(C)on3)cc2)cn1 [Compound 67, 5-methoxy-N-(4-(5-methylisoxazol-3-yl)benzyl)pyrazin-2-amine]",–,–,–,–
>39200,> 39200,"Cc1cc(-c2ccc(CNc3cc(=O)cc[nH]3)cc2)no1 [Compound 68, 2-([[4-(5-methyl-1,2-oxazol-3-yl)phenyl]methyl]amino)-1,4-dihydropyridin-4-one]",–,–,–,–
18400,> 39200,"Cc1coc(-c2ccc(CNc3cnccn3)cc2)n1 [Compound 69, N-[[4-(4-methyl-1,3-oxazol-2-yl)phenyl]methyl]pyrazin-2-amine]",–,–,–,–
800,4100,"FC(F)(F)c1nc(-c2ccc(CNc3cnccn3)cc2)no1 [Compound 70, N-(4-(5-(trifluoromethyl)-1,2,4-oxadiazol-3-yl)benzyl)pyrazin-2-amine]",–,–,–,–
>39200,> 39200,"COc1cccc(NCc2ccc(-c3cc(C)on3)cc2)n1 [Compound 71, 6-methoxy-N-[[4-(5-methyl-1,2-oxazol-3-yl)phenyl]methyl]pyridin-2-amine]",–,–,–,–
